Each structure is given as a SMILES string. A value given as a limit tells only on which side of the number the result lay.

The subject of assay [1] is A549. Kind of assay: Cytotoxicity against human A549 cells assessed as reduction in cell viability incubated for 48 hrs by MTT assay. The assay is classed as functional, cell-based. The settings on record: A549, 48 h. Background: Formazan colour is commonly taken as a measure of viable cells.
In assay [2] the test system is HeLa. Kind of assay: Cytotoxicity against human HeLa cells assessed as reduction in cell viability incubated for 48 hrs by MTT assay. The assay is classed as functional, cell-based.
Assay [3] concerns the target Tubulin. Description: Inhibition of tubulin polymerization (unknown origin) incubated for 1 hr by fluorescence based assay. The assay is classed as protein-complex assay, Homo sapiens.
Assay [4] is described as follows: Inhibition of bovine brain tubulin polymerization by spectrometric analysis. In kind it is tissue-based, Bos taurus.
Assay [5] in a line: Cytotoxicity against Cervical carcinoma cell line (unknown origin) assessed as reduction in cell viability incubated for 72 hrs by MTT assay. The assay is classed as functional.
Assay [6] is described as follows: Cytotoxicity against Breast cancer cells (unknown origin) assessed as reduction in cell viability incubated for 72 hrs by MTT assay. The assay is classed as functional, cell-based. The settings on record: Breast cancer cell line.
A short description of assay [7]: Cytotoxicity against Ovarian cancer cell line (unknown origin) assessed as reduction in cell viability incubated for 72 hrs by MTT assay. The assay is classed as functional.
Assay [8] in a line: Cytotoxicity against Leukemia cell line (unknown origin) assessed as reduction in cell viability incubated for 72 hrs by MTT assay. In kind it is functional.
Assay [9] in a line: Cytotoxicity against Prostate tumor cell line (unknown origin) assessed as reduction in cell viability incubated for 72 hrs by MTT assay. The assay is classed as functional.
Assay [10] relates to BJAB. Description: Cytotoxicity against human BJAB cells. The assay is classed as functional, cell-based.
Assay [11] deals with B16. Description: Cytotoxicity against mouse B16 cells assessed as reduction in cell viability incubated for 72 hrs by MTT assay. The assay is classed as functional, cell-based. The settings on record: B16, 72 h.
Assay [12] is filed under the species Sus scrofa. Description: Displacement of fluorescein-colchicine from pig brain tubulin incubated for 1 hr by fluorescence based gel exclusion assay. In kind it is tissue-based. The settings on record: concentration not given here.
In assay [13] the test system is BJAB. Kind of assay: Cytotoxicity against human BJAB cells assessed as reduction in cell viability incubated for 24 hrs by CASY cell counter method. The assay is classed as functional, cell-based.
Assay [14] concerns A549. Description: Cytotoxicity against human A549 cells. In kind it is functional, cell-based.
The subject of assay [15] is HT-1080. Kind of assay: Cytotoxicity against human HT-1080 cells. The assay is classed as functional, cell-based.
Assay [16] relates to SGC-7901. Description: Cytotoxicity against human SGC-7901 cells. The assay is classed as functional, cell-based.
Assay [17] relates to SGC-7901. Description: Cytotoxicity against human SGC-7901 cells assessed as reduction in cell viability incubated for 24 hrs by MTT assay. In kind it is functional, cell-based. To be noted: SGC-7901, 24 h.
Assay [18] deals with HT-1080. Kind of assay: Cytotoxicity against human HT-1080 cells assessed as reduction in cell viability incubated for 24 hrs by MTT assay. In kind it is functional, cell-based. To be noted: HT-1080, 24 h.
The test system of assay [19] is A549. Description: Cytotoxicity against human A549 cells assessed as reduction in cell viability incubated for 24 hrs by MTT assay. In kind it is functional, cell-based. To be noted: A549, 24 h.
In assay [20] the target is Tubulin. Kind of assay: Inhibition of tubulin polymerization (unknown origin) measured for every 1 min interval for 90 mins by fluorescence based assay. The assay is classed as protein-complex assay, Homo sapiens.
Assay [21] concerns HT-29. Description: Cytotoxicity against human HT-29 cells assessed as reduction in cell viability incubated for 24 hrs by MTT assay. To be noted: HT-29, 24 h. The assay is classed as functional, cell-based.
Assay [22] concerns MCF7. Description: Cytotoxicity against human MCF7 cells assessed as reduction in cell viability incubated for 24 hrs by MTT assay. To be noted: MCF7, 24 h. The assay is classed as functional, cell-based.

As a reminder, the IC50 is the concentration that inhibits the measured activity by half. As to `COc1cc(Nc2ncccc2NC(=O)c2cn(Cc3cccc(Oc4ccccc4)c3)nn2)cc(OC)c1`, the IC50 was determined as 1020 nM in assay [1], 1330 nM in assay [2] and 2040 nM in [3].

`COc1cc(C(=O)n2nc(-c3ccc(C)cc3)nc2N)cc(OC)c1OC`: the IC50 in assay [4] was found to be 660 nM.

For the compound `O=C(c1cn(Cc2cccc(Oc3ccccc3)c2)nn1)c1cccnc1Nc1ccc(F)cc1`, in assay [3], the IC50 amounted to 1840 nM.

As to `COc1cc(-c2nncn2-c2ccc3c(ccn3C)c2)cc(OC)c1OC`, the concentration for half-maximal inhibition (IC50) in assay [5], in assay [6], in assay [7], in [8] and in assay [9] was 2.1 nM throughout.

In turn, `CCCCCCCCCCCCCCCCCC(=O)OCc1cn(C2CCc3cc(OC)c(OC)c(OC)c3-c3ccc(OC)c(=O)cc32)nn1` (centres undefined) returned an IC50 in [10] of 4 nM.

Take `COc1ccc(/C=C\c2cc(OC)c(OC)c(OC)c2)cc1O` [COMBRETASTATIN A4]: the IC50 in assay [11] was found to be 56000 nM.

A word on the inhibition: it is the share of the control response that was lost under treatment. A high value points to a response far below the control. `CCCCCCCCCCCC(=O)OCc1cn(C2CCc3cc(OC)c(OC)c(OC)c3-c3ccc(OC)c(=O)cc32)nn1` (centres undefined) registered an inhibition in assay [12] of over 80%. The IC50 in assay [13] was 10 nM.

Regarding `CCCCCCCC/C=C\CCCCCCCC(=O)OCc1cn(C2CCc3cc(OC)c(OC)c(OC)c3-c3ccc(OC)c(=O)cc32)nn1` (centres undefined), the IC50 in assay [10] worked out at 6 nM.

Turning to `COc1cc(/C(=N/O)c2cnn(-c3ccccc3)n2)cc(OC)c1OC`, the IC50 in [14], in assay [15] and in assay [16] was 120 nM throughout.

`COc1cccc(-c2nnc3n2N=C(c2ccc(OC)c(N)c2)CS3)c1`: the 50% inhibitory concentration (IC50) in assay [17] is 11 nM; in [18], 11 nM; in [19], 11 nM; in [20], 1600 nM.

For `COc1cc(Cc2nnc(S)n2/N=C\c2cccc(Cl)c2Cl)cc(OC)c1OC`, the IC50 in assay [18] stood at 12500 nM; in assay [19], 9710 nM; in [3], 170 nM; in assay [21] it was 4250 nM; in assay [22], 3330 nM.

Consider `COc1ccc(S(=O)(=O)Nc2cccnc2Nc2ccc(O)cc2)cc1` [ABT-751], for which the values for the IC50 in [1] and in assay [2] were 1620 nM and 2180 nM, respectively.

(Values after ChEMBL document CHEMBL4699392, “Application of triazoles as bioisosteres and linkers in the development of microtubule targeting agents” (RSC Med Chem, 2020).)
